Consider 26 compounds from patent US9815839B2, “N-(1-(substituted-phenyl)ethyl)-9H-purin-6-amines as PI3K inhibitors” (Incyte Corporation, priority 2010, dated 2017).

The IC50 is the concentration that gives 50% inhibition.

The target of one experiment is T1, PI3Kδ (p110δ/p85α) (Homo sapiens, UniProt O00329).
T1 construct: purchased Millipore (Bedford, Mass.)
As to the kind of experiment: PI3Kδ scintillation proximity assay. The format is biochemical. The note with it: 20 μM ATP, 4 nM PI3Kδ. The method, boiled down: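 Radiometric SPA: product captured on WGA beads after EDTA quench and counted, IC50 fitted against log inhibitor concentration. Reactions ran 210 min at room temperature with 4 nM PI3Kδ (p110δ/p85α), 20 μM each PIP2 and ATP plus 33P-ATP, pH 6.7 MOPS buffer, 0.5% DMSO final.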
On the technique in general: SPA uses beads or plates that emit light when radiolabelled molecules are held near them.

The test system of experiment [1] is Pfeiffer cell line (diffuse large B cell lymphoma). In words: Pfeiffer cell proliferation assay. The format is cell-based. Particulars: Homo sapiens, Pfeiffer, Pfeiffer cells, 3-4 days plus 12 hours [3H]-thymidine incorporation. In outline:
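Pfeiffer DLBCL cells grown in RPMI/10% FBS at 2×10^3 cells/well in ultra-low-binding plates with a range of compound concentrations for 3-4 days. [3H]-thymidine (1 μCi/well) was then added for 12 h more. Incorporation was read by filtration and scintillation counting.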
In general terms: Uptake of a labelled nucleoside into DNA is a usual measure of proliferation.

Structures can show the parent of a compound that is named as a salt.

T1 sequence (O00329 whole entry, species assumed): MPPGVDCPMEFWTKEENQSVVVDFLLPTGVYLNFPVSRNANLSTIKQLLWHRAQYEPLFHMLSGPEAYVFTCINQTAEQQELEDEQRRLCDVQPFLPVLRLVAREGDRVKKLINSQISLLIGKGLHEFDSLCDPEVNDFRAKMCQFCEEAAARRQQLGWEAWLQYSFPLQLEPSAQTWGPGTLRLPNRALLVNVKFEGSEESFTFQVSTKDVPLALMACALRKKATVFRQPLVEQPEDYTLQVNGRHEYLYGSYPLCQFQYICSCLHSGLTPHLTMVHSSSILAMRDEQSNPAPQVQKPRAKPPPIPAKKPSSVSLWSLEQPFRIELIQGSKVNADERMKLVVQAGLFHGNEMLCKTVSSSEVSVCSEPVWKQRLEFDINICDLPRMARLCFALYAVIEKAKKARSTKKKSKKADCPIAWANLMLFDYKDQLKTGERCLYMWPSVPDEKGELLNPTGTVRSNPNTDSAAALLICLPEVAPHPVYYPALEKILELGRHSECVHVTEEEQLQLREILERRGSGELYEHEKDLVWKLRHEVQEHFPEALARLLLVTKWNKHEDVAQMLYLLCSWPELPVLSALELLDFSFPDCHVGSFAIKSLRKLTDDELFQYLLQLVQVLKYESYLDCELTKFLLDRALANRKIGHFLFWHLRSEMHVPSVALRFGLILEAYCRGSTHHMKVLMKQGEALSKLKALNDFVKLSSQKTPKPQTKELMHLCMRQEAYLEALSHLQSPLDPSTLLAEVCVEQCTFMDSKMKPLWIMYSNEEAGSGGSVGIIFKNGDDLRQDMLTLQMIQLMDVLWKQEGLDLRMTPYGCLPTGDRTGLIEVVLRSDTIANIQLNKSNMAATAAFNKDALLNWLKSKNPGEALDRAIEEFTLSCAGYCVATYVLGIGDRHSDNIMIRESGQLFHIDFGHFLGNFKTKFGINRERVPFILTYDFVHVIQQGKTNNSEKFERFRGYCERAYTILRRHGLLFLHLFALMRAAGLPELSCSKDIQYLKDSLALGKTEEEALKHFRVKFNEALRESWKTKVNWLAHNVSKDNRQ
T1 sequence (P27986 whole entry partner, species assumed): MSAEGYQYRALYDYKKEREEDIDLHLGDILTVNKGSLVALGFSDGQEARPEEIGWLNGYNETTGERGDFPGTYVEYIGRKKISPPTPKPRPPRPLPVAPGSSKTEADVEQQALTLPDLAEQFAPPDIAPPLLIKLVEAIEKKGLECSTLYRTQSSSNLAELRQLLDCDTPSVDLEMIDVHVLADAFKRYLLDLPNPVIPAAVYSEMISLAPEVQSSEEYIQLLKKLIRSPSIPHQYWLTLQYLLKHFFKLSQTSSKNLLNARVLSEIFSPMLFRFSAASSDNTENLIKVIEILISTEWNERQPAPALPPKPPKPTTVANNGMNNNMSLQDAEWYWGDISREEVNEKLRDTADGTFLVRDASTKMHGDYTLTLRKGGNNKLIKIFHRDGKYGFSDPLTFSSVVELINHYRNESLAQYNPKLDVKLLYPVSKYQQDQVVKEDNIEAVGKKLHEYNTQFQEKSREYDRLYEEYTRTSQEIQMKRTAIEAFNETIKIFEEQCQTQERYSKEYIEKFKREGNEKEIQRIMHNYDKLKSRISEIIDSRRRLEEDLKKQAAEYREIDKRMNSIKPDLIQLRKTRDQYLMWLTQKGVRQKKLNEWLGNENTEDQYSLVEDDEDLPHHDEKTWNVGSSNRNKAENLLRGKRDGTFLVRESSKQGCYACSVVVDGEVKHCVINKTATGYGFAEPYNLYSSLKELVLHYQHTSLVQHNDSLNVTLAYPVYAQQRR

With `COc1c(C(C)Nc2ncnc3[nH]cnc23)cc(Cl)c(C)c1-c1cc(F)cc(C(N)=O)c1` (stereo not shown) [Example 110, 3′-chloro-5-fluoro-6′-methoxy-2′-methyl-5′-[1-(9H-purin-6-ylamino)ethyl]biphenyl-3-carboxamide], the values for the IC50 (against PI3Kδ (p110δ/p85α); in experiment [1]) were under 50 nM and 100 to 500 nM, respectively.
With `COc1c(C(C)Nc2ncnc3[nH]cnc23)cc(Cl)c(C)c1-c1cncc(C(=O)N2CCOCC2)c1` (stereo not shown) [Example 111, N-(1-{5-chloro-2-methoxy-4-methyl-3-[5-(morpholin-4-ylcarbonyl)pyridin-3-yl]phenyl}ethyl)-9H-purin-6-amine], the IC50 against PI3Kδ (p110δ/p85α) is under 50 nM; in experiment [1], under 100 nM.
The like results for `COc1c(C(C)Nc2ncnc3[nH]cnc23)cc(Cl)c(C)c1-c1ccc(NC(C)=O)nc1` (stereo not shown) [Example 112, N-(5-{3-chloro-6-methoxy-2-methyl-5-[1-(9H-purin-6-ylamino)ethyl]phenyl}-pyridin-2-yl)acetamide] were, in that order, under 50 nM and under 100 nM.
Take `CC(Nc1ncnc2[nH]cnc12)c1cc(Cl)cc(-c2cn[nH]c2)c1-c1cc(F)cc(F)c1` (stereo not shown) [Example 124, N-{1-[4-Chloro-3′,5′-difluoro-6-(1H-pyrazol-4-yl)biphenyl-2-yl]ethyl}-9H-purin-6-amine]: the results for the IC50 (against PI3Kδ (p110δ/p85α); in experiment [1]) were under 50 nM and under 100 nM, respectively.
As to `COc1c(C(C)Nc2ncnc3[nH]cnc23)cc(Cl)c(C)c1C1CN(C(C)=O)C1` (stereo not shown) [Example 166, N-{1-[3-(1-Acetylazetidin-3-yl)-5-chloro-2-methoxy-4-methylphenyl]ethyl}-9H-purin-6-amine trifluoroacetate], the concentration for half-maximal inhibition (IC50) on PI3Kδ (p110δ/p85α) was under 50 nM; in experiment [1], under 100 nM.
As to `COc1c(C(C)Nc2ncnc3[nH]cnc23)cc(Cl)c(C)c1C1CN(C(C)C)C1` (stereo not shown) [Example 170, N-{1-[5-Chloro-3-(1-isopropylazetidin-3-yl)-2-methoxy-4-methylphenyl]ethyl}-9H-purin-6-amine bis(trifluoroacetate)], the results for the IC50 (on PI3Kδ (p110δ/p85α); in experiment [1]) were under 50 nM and under 100 nM, respectively.
Take `COc1c(C(C)Nc2ncnc3[nH]cnc23)cc(Cl)c(C)c1-c1cnn(C2CCNCC2)c1` (stereo not shown) [Example 174, N-{1-[5-chloro-2-methoxy-4-methyl-3-(1-piperidin-4-yl-1H-pyrazol-4-yl)phenyl]ethyl}-9H-purin-6-amine tris(trifluoroacetate)]: the values for the IC50 (against PI3Kδ (p110δ/p85α); in experiment [1]) were under 50 nM and under 100 nM, respectively.
The like results for `COc1c(C(C)Nc2ncnc3[nH]cnc23)cc(Cl)c(C)c1C1CCN(C)CC1` (stereo not shown) [Example 176, N-{1-[5-Chloro-2-methoxy-4-methyl-3-(1-methylpiperidin-4-yl)phenyl]ethyl}-9H-purin-6-amine] were, in that order, under 50 nM and under 100 nM.
As to `COc1c(C(C)Nc2ncnc3[nH]cnc23)cc(Cl)c(C)c1-c1cccc(C(=O)N(C)C)n1` (stereo not shown) [Example 177, 6-{3-chloro-6-methoxy-2-methyl-5-[1-(9H-purin-6-ylamino)ethyl]phenyl}-N,N-dimethylpyridine-2-carboxamide bis(2,2,2-trifluoroacetate)], the figures for the IC50 (at PI3Kδ (p110δ/p85α); in experiment [1]) were under 50 nM and under 100 nM, respectively.
Regarding `COc1c(C(C)Nc2ncnc3[nH]cnc23)cc(Cl)c(C)c1-c1cc(C(=O)N(C)C)cnn1` (stereo not shown) [Example 178, 6-{3-chloro-6-methoxy-2-methyl-5-[1-(9H-purin-6-ylamino)ethyl]phenyl}-N,N-dimethylpyridazine-4-carboxamide bis(2,2,2-trifluoroacetate)], the results for the IC50 (at PI3Kδ (p110δ/p85α); in experiment [1]) were under 50 nM and under 100 nM, respectively.
Consider `CCOc1c(C(C)Nc2ncnc3[nH]cnc23)cc(Cl)c(C#N)c1-c1ccc(C(=O)N(C)C)nc1` (stereo not shown) [Example 179, 5-{3-chloro-2-cyano-6-ethoxy-5-[1-(9H-purin-6-ylamino)ethyl]phenyl}-N,N-dimethylpyridine-2-carboxamide bis(2,2,2-trifluoroacetate)], for which the IC50 against PI3Kδ (p110δ/p85α) is under 50 nM; in experiment [1], under 100 nM.
For `CCOc1c(C(C)Nc2ncnc3[nH]cnc23)cc(Cl)c(C#N)c1-c1ccc(C(C)O)nc1` (stereo not shown) [Example 180, 6-chloro-3-ethoxy-2-[6-(1-hydroxyethyl)pyridin-3-yl]-4-[1-(9H-purin-6-ylamino)ethyl]benzonitrile bis(2,2,2-trifluoroacetate)] the same measures were under 50 nM and under 100 nM.
For `COc1c(C(C)Nc2ncnc3[nH]cnc23)cc(Cl)c(Cl)c1C1CN(C(C)C)C1` (stereo not shown) [Example 194, N-{1-[4,5-Dichloro-3-(1-isopropylazetidin-3-yl)-2-methoxyphenyl]ethyl}-9H-purin-6-amine bis(trifluoroacetate)] the same measures were under 50 nM and under 100 nM.
As to `COc1c(C(C)Nc2ncnc3[nH]cnc23)cc(Cl)c(Cl)c1C1CN(C(C)=O)C1` (stereo not shown) [Example 195, N-{1-[3-(1-Acetylazetidin-3-yl)-4,5-dichloro-2-methoxyphenyl]ethyl}-9H-purin-6-amine], the figures for the half-inhibitory concentration (IC50) (against PI3Kδ (p110δ/p85α); in experiment [1]) were under 50 nM and under 100 nM, respectively.
`COc1c(C(C)Nc2ncnc3[nH]cnc23)cc(Cl)c(Cl)c1C1CN(CCO)C1` (stereo not shown) [Example 196, 2-(3-{2,3-Dichloro-6-methoxy-5-[1-(9H-purin-6-ylamino)ethyl]phenyl}azetidin-1-yl)ethanol bis(trifluoroacetate)]: the IC50 on PI3Kδ (p110δ/p85α) is under 50 nM; in experiment [1], under 100 nM.
With `COc1c(C(C)Nc2ncnc3[nH]cnc23)cc(Cl)c(Cl)c1C1CN(C2CCOC2)C1` (stereo not shown) [Example 197, N-(1-{4,5-Dichloro-2-methoxy-3-[1-(tetrahydrofuran-3-yl)azetidin-3-yl]phenyl}ethyl)-9H-purin-6-amine bistrifluoroacetate], the IC50 against PI3Kδ (p110δ/p85α) was under 50 nM; in experiment [1] it was under 100 nM.
With `COc1c(C(C)Nc2ncnc3[nH]cnc23)cc(Cl)c(Cl)c1C1CN(C)C1` (stereo not shown) [Example 199, N-{1-[4,5-Dichloro-2-methoxy-3-(1-methylazetidin-3-yl)phenyl]ethyl}-9H-purin-6-amine], the IC50 against PI3Kδ (p110δ/p85α) is under 50 nM; in experiment [1], under 100 nM.
The like results for `COCCN1CC(c2c(Cl)c(Cl)cc(C(C)Nc3ncnc4[nH]cnc34)c2OC)C1` (stereo not shown) [Example 200, N-(1-{4,5-Dichloro-2-methoxy-3-[1-(2-methoxyethyl)azetidin-3-yl]phenyl}ethyl)-9H-purin-6-amine] were, in that order, under 50 nM and under 100 nM.
Consider `COc1c(C(C)Nc2ncnc3[nH]cnc23)cc(Cl)c(Cl)c1C1CN(CC2CC2)C1` (stereo not shown) [Example 201, N-(1-{4,5-Dichloro-3-[1-(cyclopropylmethyl)azetidin-3-yl]-2-methoxyphenyl}ethyl)-9H-purin-6-amine], for which the IC50 is under 50 nM at PI3Kδ (p110δ/p85α) and under 100 nM in experiment [1].
Turning to `COc1c(C(C)Nc2ncnc3[nH]cnc23)cc(Cl)c(Cl)c1C1CN(CC2CCOC2)C1` (stereo not shown) [Example 202, N-(1-{4,5-dichloro-2-methoxy-3-[1-(tetrahydrofuran-3-ylmethyl)azetidin-3-yl]phenyl}ethyl)-9H-purin-6-amine], the IC50 against PI3Kδ (p110δ/p85α) was under 50 nM; in experiment [1], under 100 nM.
The like results for `COc1c(C(C)Nc2ncnc3[nH]cnc23)cc(Cl)c(Cl)c1C1CN(CCCC(F)(F)F)C1` (stereo not shown) [Example 203, N-(1-{4,5-Dichloro-2-methoxy-3-[1-(4,4,4-trifluorobutyl)azetidin-3-yl]phenyl}ethyl)-9H-purin-6-amine] were, in that order, under 50 nM and under 100 nM.
With `COc1c(C(C)Nc2ncnc3[nH]cnc23)cc(Cl)c(Cl)c1C1CN(Cc2cscn2)C1` (stereo not shown) [Example 204, N-(1-{4,5-Dichloro-2-methoxy-3-[1-(1,3-thiazol-4-ylmethyl)azetidin-3-yl]phenyl}ethyl)-9H-purin-6-amine], the results for the IC50 (against PI3Kδ (p110δ/p85α); in experiment [1]) were under 50 nM and under 100 nM, respectively.
Regarding `COc1c(C(C)Nc2ncnc3[nH]cnc23)cc(Cl)c(Cl)c1C1CN(CCC(F)(F)F)C1` (stereo not shown) [Example 205, N-(1-{4,5-Dichloro-2-methoxy-3-[1-(3,3,3-trifluoropropyl)azetidin-3-yl]phenyl}ethyl)-9H-purin-6-amine], the IC50 on PI3Kδ (p110δ/p85α) is under 50 nM; in experiment [1] it was under 100 nM.
As to `COc1c(C(C)Nc2ncnc3[nH]cnc23)cc(Cl)c(Cl)c1C1CN(C(C)CO)C1` (stereo not drawn) [Example 208, 2-(3-{2,3-Dichloro-6-methoxy-5-[1-(9H-purin-6-ylamino)ethyl]phenyl}azetidin-l-yl)propan-1-ol bistrifluoroacetate], the IC50 at PI3Kδ (p110δ/p85α) is under 50 nM; in experiment [1] it was under 100 nM.
With `CCOc1c(C(C)Nc2ncnc3[nH]cnc23)cc(C#N)c(F)c1-c1cncc(S(C)(=O)=O)c1` (stereo not shown) [Example 212, 4-Ethoxy-2-fluoro-3-[5-(methylsulfonyl)pyridin-3-yl]-5-[1-(9H-purin-6-ylamino)ethyl]benzonitrile bis(trifluoroacetate)], the IC50 is under 50 nM on PI3Kδ (p110δ/p85α) and 100 to 500 nM in experiment [1].
`CCOc1c(C(C)Nc2ncnc3[nH]cnc23)cc(Cl)c(C#N)c1C1CN(CC)C1` (stereo not shown) [Example 213, 6-Chloro-3-ethoxy-2-(1-ethylazetidin-3-yl)-4-[1-(9H-purin-6-ylamino)ethyl]benzonitrile bis(trifluoroacetate)]: the IC50 against PI3Kδ (p110δ/p85α) was under 50 nM; in experiment [1], under 100 nM.
